In assay [1] the test system is cleaved caspase-8. The settings on record: septic rats; Western blot. The protocol: (§1) Sepsis was developed by cecal ligation puncture model (CLP) as described in several papers (Li G et al, Clin Exp Pharmacol Physiol. 2014; 41(7):459-68, Seija M et al, Shock. 2012; 38(4):403-10). Animals were anesthetized with ketamine (Ketolar 50 mg/ml) 90 mg/kg intraperitoneal (ip) and diazepam (Valium 10 mg/2 mL) 5 mg/kg ip. Under sterile conditions a 3-cm midline laparotomy was performed to allow exposure of the cecum, and a 4-0 silk ligature was placed 0.75 cm from the cecal tip. It was punctured once with a 14-gauge needle. A second ligature was placed 1.5 cm proximal to the first one and distal to the ileocecal valve to avoid intestinal obstruction. Three punctures were made in the cecum between the two ligatures with a 16-gauge needle. The cecum was gently squeezed until a 1-mm column of fecal material was exteriorized. The bowel was then returned to the abdomen and the incision was closed in layers. A sham operation (laparotomy and cecal exposure without any other manipulation) was performed as control. […]
(§2) Western blotting was performed as described previously (Humanes B et al, Kidney International. 2012; 82(6):652-663). […] All signals were visualized with an Alliance 4.7 (Uvitec, Cambridge, UK) and analyzed by densitometric scanning (ImageJ; http://rsbweb.nih.gov/ij/index.html). […]
In general terms: In western blotting, separated proteins are transferred to a membrane and probed.

The subject of assay [2] is FasL. The conditions noted are these: septic rats; Western blot. Here is the method:
as §1, §2

For assay [3], the system named is cleaved caspase-3. The settings on record: septic rats; immunohistochemistry and Western blot of the renal cortex. The protocol: (§3) Sepsis was developed by cecal ligation puncture model (CLP) as described in several papers (Li G et al, Clin Exp Pharmacol Physiol. 2014; 41(7):459-68, Seija M et al, Shock. 2012; 38(4):403-10). Animals were anesthetized with ketamine (Ketolar 50 mg/ml) 90 mg/kg intraperitoneal (ip) and diazepam (Valium 10 mg/2 mL) 5 mg/kg ip. Under sterile conditions a 3-cm midline laparotomy was performed to allow exposure of the cecum, and a 4-0 silk ligature was placed 0.75 cm from the cecal tip. It was punctured once with a 14-gauge needle. A second ligature was placed 1.5 cm proximal to the first one and distal to the ileocecal valve to avoid intestinal obstruction. Three punctures were made in the cecum between the two ligatures with a 16-gauge needle. The cecum was gently squeezed until a 1-mm column of fecal material was exteriorized. The bowel was then returned to the abdomen and the incision was closed in layers. A sham operation (laparotomy and cecal exposure without any other manipulation) was performed as control. At the end of the operation, all rats were resuscitated with normal saline (50 ml/kg body weight) subcutaneously in a single dose and analgesic treatment with buprenorphine (buprex 0.3 mg/ml) 0.1 mg/kg every 12 hours immediately after surgery and until the day of killing.
(§4) Immunohistochemistry was carried out as described previously (Humanes B et al, Kidney International. 2012; 82(6):652-663). […] The surface area labeled by antibodies was evaluated by quantitative image analysis as previously described (Lazaro A. et al. Antiox Redox Signal. 2005; 7:1285-1293). In brief, the percentage of the stained area was calculated as the ratio of suitable binary thresholded image and the total field area. […]
as §2

The test system of assay [4] is KIM-1. The settings on record: sepsis+cil vs control (SHAM) levels; immunohistochemistry and Western blot; 48 h. Here is the method: as §3, §4, §2
In assay [5] the test system is Cu/Zn SOD. The settings on record: septic rats; immunohistochemistry and Western blotting. Here is the method: as §3, §4, §2
The subject of assay [6] is CLP-induced sepsis rats. The conditions noted are these: day 2 after CLP surgery. The protocol:
as §3
(§5) In the treatment groups, the rats were treated with cilastatin 150 mg/kg ip immediately and at 24 h after induction of sepsis or the sham-operation. Cilastatin was substituted by vehicle (0.5 mL/100 g) in the non-treatment groups. […] All animals were then placed in the metabolic cages for 24-h urine collection.
(§6) Forty-eight (48) hours after the sepsis-induction/sham-operation, all rats were anesthetized with ketamine (10 mg/kg) and diazepam (4 mg/kg) and killed. Blood samples were collected by insertion of a cannula into the abdominal aorta, and serum was isolated by centrifugation in ACUETTE® Z Serum Sep Clot Activator tubes (Greiner bio-one), at 2000 rpm for 15 h at 4° C., and then stored at −80° C. until use. The kidneys were perfused with cold saline and quickly removed. […]

For assay [7], the system named is kidney tubular cell apoptosis. The settings on record: kidneys of septic rats. The protocol: as §3, §5, §6
For assay [8] the following is noted: septic rats. The protocol:
as §3, §5, §6

The subject of assay [9] is CLP-induced sepsis rats. Here is the method: as §3
The test system of assay [10] is VCAM-1. The settings on record: septic rats; immunohistochemistry. Here is the method:
as §3
(§7) Immunohistochemistry was carried out as described previously (Humanes B et al, Kidney International. 2012; 82(6):652-663). The primary antibodies used were polyclonal goat anti-rat TIM-1/KIM-1/HAVCR (1:20; R&D systems); anti-cleaved caspase-3 (Asp175) (1:50; Cell Signaling Technology, Inc., Beverly, Mass.) mouse monoclonal anti-4-HNE (1:75; Oxis International Inc., Foster City, Calif.); polyclonal rabbit anti-Cu/Zn SOD (1:1000; Assay Designs, Stressgen, Ann Arbor, Mich., USA); monoclonal mouse anti-CD68 (monocyte/macrophage, 1:125, Abd Serotec, Oxford, UK); polyclonal goat anti-VCAM-1 (1:100; Santa Cruz Biotechology, Inc., Beverly, Mass., USA); polyclonal rabbit anti-TGFβ1 antibody (1:100; Santa Cruz Biotechnology); monoclonal mouse anti-ICAM-1 (1:100; Santa Cruz). […] The surface area labeled by antibodies was evaluated by quantitative image analysis as previously described (Lazaro A. et al. Antiox Redox Signal. 2005; 7:1285-1293). In brief, the percentage of the stained area was calculated as the ratio of suitable binary thresholded image and the total field area. For each sample, the mean staining area was obtained by analysis of the entire sample.
as §5
(§8) Forty-eight (48) hours after the sepsis-induction/sham-operation, all rats were anesthetized with ketamine (10 mg/kg) and diazepam (4 mg/kg) and killed. Blood samples were collected by insertion of a cannula into the abdominal aorta, and serum was isolated by centrifugation in ACUETTE® Z Serum Sep Clot Activator tubes (Greiner bio-one), at 2000 rpm for 15 h at 4° C., and then stored at −80° C. until use. The kidneys were perfused with cold saline and quickly removed. Kidney samples were snap-frozen in liquid nitrogen and kept at −80° C. or fixed in 4% paraformaldehyde (24 h) and paraffin-embedded for the different studies.

The test system of assay [11] is CD68. The conditions noted are these: cilastatin-treated septic rats compared to the sepsis group. The protocol:
as §3, §7, §5, §8

Assay [12] has as its system ICAM-1. The settings on record: septic rats; immunohistochemistry. The protocol:
as §3, §7, §5, §8

For assay [13], the system named is TGFβ. The settings on record: septic animals; immunohistochemistry. Here is the method: as §3, §7, §5, §8
In assay [14] the test system is 4-HNE. The conditions noted are these: septic rats. Here is the method: as §3, §7, §5, §8
The test system of assay [15] is CLP-induced sepsis rats. The protocol:
as §3
Serum creatinine, blood urea nitrogen levels (BUN), proteins and other parameters were measured using the Dimension RxL autoanalyzer (Dade-Behring, Siemens, Eschborn, Germany). The glomerular filtration rate was calculated using the creatinine clearance rate.
The animals were randomly allocated into four groups (n=10 in each group): • i. sham-operated group, • ii. CLP group, • iii. sham-operated group+cilastatin, and • iv. CLP group+cilastatin.
as §5, §8
The source holds these as a separate data set.

Setting [16] is: sepsis+cil group, 48 hours after induction of sepsis, cilastatin 150 mg/kg ip immediately and at 24 h, mean±s.e.m.

Results on one molecule are retold here after patent publication US11185522B2, “Cilastatin for use in the treatment of sepsis” (FUNDACIÓN PARA LA INVESTIGACIÓN BIOMÉDICA DEL HOSPITAL …, priority 2016, dated 2021).

Values joined by “and” are separate entries in the source; they are usually repeats but may differ in a detail not shown here. Equal values may be shown once.

Turning to `CC1(C)C[C@@H]1C(=O)N/C(=C\CCCCSC[C@H](N)C(=O)O)C(=O)O` [cilastatin, (Z)-7-[(2R)-2-Amino-3-hydroxy-3-oxopropyl]sulfanyl-2-{[(1S)-2,2-dimethylcyclopropanecarbonyl]amino}hept-2-enoic acid], in [1], the “Renal cortex cleaved caspase-8” value is “attenuated”. Further, the “Renal cortex FasL” value in assay [2] is listed as “attenuated”. Besides, the “Elevated caspase-3 levels” value in assay [3] is “significantly lowered”. The KIM-1 protein level result in assay [4] is reported as “partially restored”. Besides, the “Cu/Zn SOD expression in renal cortex” value in assay [5] is given as “able to restore its expression”. Moreover, the “Semi-quantitative renal injury score” value in assay [6] is listed as “reduced the renal injury score”. In addition, the “Number of TUNEL-positive cells” value in assay [7] is reported as “significantly decreased”. For the same molecule, the “Antioxidant capacity in urine” value in assay [8] is on record as “improved”. For the same molecule, the Decrease in mortality in assay [9] (cilastatin vs CLP plus vehicle, 48 h after CLP) is 33% and 30%. The “Mortality (%)” value in assay [9] (sepsis+cil group, monitored for 48 h after CLP, cilastatin 150 mg/kg immediately and at 24 h, 6 rats per group, sepsis vehicle group 83%) is given as 50%. The “Sepsis-induced increase of VCAM-1 expression” value in assay [10] is “significantly reduced”. The “CD68 positive cells in renal samples” value in assay [11] is “fewer”. For the same molecule, the “Sepsis-induced increase of ICAM-1 expression” value in assay [12] is given as “significantly reduced”. Also, the “TGFβ1 levels in renal tissue” value in [13] is “significantly decreased”. The “Sepsis-enhanced 4-HNE staining in the kidneys” value in [14] is reported as “completely prevented”. The Protein excretion result in assay [15] (CLP group with cilastatin vs CLP group, 48 h) is recorded as “significantly reduced”. In assay [15] (sepsis+cil group (fourth value, group not labelled), 48 hours, cilastatin 150 mg/kg ip, mean±s.e.m.), this molecule showed a Proteinuria of 1889±347. In assay [15] (setting [16]), this molecule showed a Blood urea nitrogen of 75±7 and a Serum creatinine of 0.38±0.02. In addition, the Glomerular filtration rate in [15] (sepsis+cil group, 48 hours, calculated using the creatinine clearance rate, cilastatin 150 mg/kg ip, mean±s.e.m.) is on record as 0.45±0.07. The “Sepsis-induced dysfunctions: serum BUN and creatinine increase, glomerular filtration rate decrease” value in assay [15] (septic animals, cilastatin 150 mg/kg ip, 48 h) is “totally prevented”.
